Assay results reported in article PMC12332667, “Role of Structural Modifications in Peptidomimetic Compounds as Potential Antimicrobial Agents against Staphylococcus aureus and Streptococcus pyogenes: Balancing Bioavailability, Safety, and Antimicrobial Activity” (ACS Omega, 2025).
Converted amounts (≈) assume the structure as drawn.

Tests used:
P. vulgaris ATCC 6896 = assay: MIC/MBC broth microdilution, P. vulgaris; type: cell-based, Proteus vulgaris
Procedure: (§1) S. aureus (ATCC 29213),S. pyogenes (ATCC 19615),Streptococcus agalactiae (ATCC 27956),Escherichia coli (ATCC 25922),Proteus vulgaris (ATCC 6896),K. pneumoniae (ATCC 700603) andP. aeruginosa (ATCC 10145) reference strains, as well asStaphylococcus cohnii, Enterococcus faecalis, Staphylococcus schleiferi, Staphylococcus intermedius and Streptococcus mutans clinical isolates, were used to test the antibacterial activity of the peptidomimetics. Bacteria were aerobically cultured for 18 h at 37 °C in plates with sterilized brain heart infusion (BHI) broth (Sigma-Aldrich, USA) media mixed with bacteriological agar (Sigma-Aldrich, USA) using the streak plate method. After 18 h, BHI broth was inoculated to 0.5 on the McFarland scale and diluted to approximately 10^5 CFU/mL. To achieve a final stock concentration of 1024 μg/mL, the peptidomimetics were dissolved in sterile water, and 5–10% of absolute ethanol or dimethyl sulfoxide (DMSO) was added. The antibacterial activities were determined by using the standard broth microdilution method of the National Committee for Clinical Laboratory Standards. The process involved adding serially diluted peptidomimetics to consecutive wells of a 96-well microtiter plate (Brand, Germany) holding media with microorganisms. The inoculated plates treated with peptides were then placed in an incubator at 37 °C for 18 h. The MIC value was determined as the lowest concentration of peptidomimetic at which there was no obvious growth (equal or more than 90% of the untreated sample). […] The lowest concentration yielding growth in no more than 3 colonies, corresponding to at least a 99.9% kill rate, was taken as MBC. Each biological replicate included control wells with the addition of water, DMSO, and ethanol as respective solvent controls. All experiments were conducted with consistent adherence to growth and sterility controls and were performed at least in technical triplicate with three biological repeats.

[1] = tested on: immortalized human keratinocytes (HaCaT); assay: LDH cytotoxicity test, keratinocytes; type: cell-based; conditions: 48 h, 50, 100 and 150 μg/mL, vs 1% Triton X-100
Procedure: (§2) In our study, we used two distinct cell types: immortalized human HaCaT keratinocytes (DKFZ, Heidelberg, Germany) and a human dermal fibroblast cell line (46BR.1N). […] Cultures were maintained in a humidified atmosphere with 5% CO2 at 37 °C in 25 cm^2 culture flasks with the medium replenished every 2 days. The condition of the cells was monitored using optical microscopy.
(§3) Cell death in immortalized human keratinocytes (HaCaT) and fibroblasts (46BR.1N) was measured by quantifying the lactate dehydrogenase (LDH) activity using a commercial kit (Roche, Switzerland). Cells were seeded in 96-well plates at a density of 5000 cells per well in DMEM high glucose medium supplemented with 10% FBS. After 24 h of incubation, the medium was replaced with serum-free medium containing various concentrations of peptidomimetics (50, 100, and 150 μg/mL). After 48 h, supernatants were collected for LDH analysis. Plate readings were taken spectrophotometrically using a 450 nm wavelength. Cell death measurements were normalized to an untreated control (0%), with 1% Triton X-100 detergent used as a positive control to induce maximum LDH release, indicating maximal cytotoxicity. Statistical significance was determined with a Mann–Whitney U test with a statistical significance p ≤ 0.05. Analysis was performed with Statistica software (Krakow, Poland) and graphs were prepared in GraphPad Prism (Boston, USA).

S. pyogenes ATCC 19615 = assay: MIC/MBC broth microdilution, S. pyogenes; type: cell-based, Streptococcus pyogenes; conditions: S. pyogenes
Procedure: as §1

[2] = tested on: immortalized human HaCaT keratinocytes; assay: XTT cell proliferation assay, keratinocytes; type: cell-based; conditions: XTT
Procedure: (§4) In our study, we used two distinct cell types: immortalized human HaCaT keratinocytes (DKFZ, Heidelberg, Germany) and a human dermal fibroblast cell line (46BR.1N). […] Cultures were maintained in a humidified atmosphere with 5% CO2 at 37 °C in 25 cm^2 culture flasks with the medium replenished every 2 days. The condition of the cells was monitored using optical microscopy. […] After 24 h of incubation, the medium was replaced with serum-free HG-DMEM containing appropriate concentrations of peptidomimetics. All solutions used in the experiments were prepared with double-distilled water or with the addition of ethanol under sterile conditions to ensure compatibility with the conditions of the bacteriological assay. For 72 h of incubation, half of the medium was replaced with fresh medium after 48 h, and cells were stimulated with peptides for a second time. The XTT cell proliferation assay was then performed according to the manufacturer’s instructions (Roche, Switzerland). Cells were treated with the peptides for either 48 or 72 h, followed by the addition of XTT reagent, and the plates were then incubated at 37 °C in a 5% CO2 environment for 4 h. Plate readings were taken using a standard plate reader at a wavelength of 490 nm (OD = 490 nm). […] Statistical significance was determined with a Mann–Whitney U test with statistical significance p ≤ 0.05. Analysis was performed with Statistica software, and graphs were prepared in GraphPad Prism.

S. cohnii c.i. = assay: MIC/MBC broth microdilution, S. cohnii; type: cell-based, Staphylococcus cohnii
Procedure: as §1

S. schleiferi c.i. = assay: MIC/MBC broth microdilution, S. schleiferi; type: cell-based, Staphylococcus schleiferi
Procedure: as §1

S. aureus ATCC 43300 = assay: MIC/MBC broth microdilution, S. aureus; type: cell-based, Staphylococcus aureus; conditions: S. aureus
S. agalactiae ATCC 27956 = assay: MIC/MBC broth microdilution, S. agalactiae; type: cell-based, Streptococcus agalactiae; conditions: S. agalactiae
Procedure: as §1

[3] = tested on: human dermal fibroblast cell line (46BR.1N); assay: XTT cell proliferation assay, fibroblasts; type: cell-based; conditions: XTT
Procedure: as §4

P. aeruginosa ATCC 10145 = assay: MIC/MBC broth microdilution, P. aeruginosa; type: cell-based
Procedure: as §1

S. intemrdius c.i. = assay: MIC/MBC broth microdilution, S. intermedius; type: cell-based, Staphylococcus intermedius
Procedure: as §1

fibroblasts (46BR.1N) = assay: LDH cytotoxicity test, fibroblasts; type: cell-based; conditions: 48 h, 50, 100 and 150 μg/mL, vs 1% Triton X-100
Procedure: as §2, §3

[4] = tested on: K. pneumoniae ATCC 700603; assay: MIC/MBC broth microdilution, K. pneumoniae; type: cell-based
Procedure: as §1

S. mutans c.i. = assay: MIC/MBC broth microdilution, S. mutans; type: cell-based, Streptococcus mutans
Procedure: as §1

E. coli ATCC 25922 = assay: MIC/MBC broth microdilution, E. coli; type: cell-based, Escherichia coli
Procedure: as §1

E. faecalis c.i. = assay: MIC/MBC broth microdilution, E. faecalis; type: cell-based, Enterococcus faecalis
Procedure: as §1

In the case of `CC(C)C[C@H](NC(=O)[C@H](CCCCNC(=N)N)NC(=O)OCc1ccccc1)C(=O)N[C@H](CNC(=O)/C=C/c1ccccc1)C(C)C` [Compound A-134], the MIC (P. vulgaris ATCC 6896; water additive DMSO) is reported as over 512 µg/mL, the MIC (P. vulgaris ATCC 6896; water additive EtOH) is reported as over 512 µg/mL and the “cytotoxicity (LDH)” value [1] is reported as at most 50%. For the same compound, the MIC (S. pyogenes ATCC 19615; H2O) was 32 µg/mL (≈ 49.2 µM), the MBC (S. pyogenes ATCC 19615; water additive DMSO) was 16 µg/mL (≈ 24.6 µM) and the MIC (S. pyogenes ATCC 19615; water additive DMSO) was 32 µg/mL (≈ 49.2 µM). The MBC (S. pyogenes ATCC 19615; water additive EtOH) was 32 µg/mL (≈ 49.2 µM), the MIC (S. pyogenes ATCC 19615; water additive EtOH) was 16 µg/mL (≈ 24.6 µM) and the “proliferation relative to control at 50 μg/mL” value ([2]; 50 μg/mL) was “approximately 75%”. The “effect on proliferation, in words” value ([2]; 48 and 72 h, 0.01–150 μg/mL) was “pro-proliferating effect at lower concentrations followed by an antiproliferative effect at higher concentrations”, the MBC (S. cohnii c.i.; water additive DMSO) was 32 µg/mL (≈ 49.2 µM) and the MIC (S. cohnii c.i.; water additive DMSO) was 32 µg/mL (≈ 49.2 µM). The MBC (S. cohnii c.i.; water additive EtOH) was 32 µg/mL (≈ 49.2 µM), the MIC (S. cohnii c.i.; water additive EtOH) was 32 µg/mL (≈ 49.2 µM) and the MIC (S. schleiferi c.i.; water additive DMSO) was over 512 µg/mL. It also gave an MIC (S. schleiferi c.i.; water additive EtOH) of over 512 µg/mL, an MIC (S. aureus ATCC 43300; H2O) of 32 µg/mL (≈ 49.2 µM) and an MIC (S. aureus ATCC 43300; water additive EtOH) of 32 µg/mL (≈ 49.2 µM). For the same compound, the MIC (S. agalactiae ATCC 27956; water additive DMSO) was 32 µg/mL (≈ 49.2 µM), the MIC (S. agalactiae ATCC 27956; water additive EtOH) was 32 µg/mL (≈ 49.2 µM) and the “proliferation relative to control at 50 μg/mL” value ([3]; 50 μg/mL) was “approximately 75%”. For the same compound, the “effect on proliferation, in words” value ([3]; 48 and 72 h, 0.01–150 μg/mL) was “pro-proliferating effect at lower concentrations followed by an antiproliferative effect at higher concentrations”, the MIC (P. aeruginosa ATCC 10145; water additive DMSO) was over 512 µg/mL and the MIC (P. aeruginosa ATCC 10145; water additive EtOH) was over 512 µg/mL. The MBC (S. intemrdius c.i.; water additive DMSO) was 32 µg/mL (≈ 49.2 µM), the MIC (S. intemrdius c.i.; water additive DMSO) was 32 µg/mL (≈ 49.2 µM) and the MBC (S. intemrdius c.i.; water additive EtOH) was 16 µg/mL (≈ 24.6 µM). For the same compound, the MIC (S. intemrdius c.i.; water additive EtOH) was 16 µg/mL (≈ 24.6 µM), the “cytotoxicity (LDH)” value (fibroblasts (46BR.1N)) was at most 50% and the MIC ([4]; water additive DMSO) was over 512 µg/mL. For the same compound, the MIC ([4]; water additive EtOH) was over 512 µg/mL, the MBC (S. mutans c.i.; water additive DMSO) was over 512 µg/mL and the MIC (S. mutans c.i.; water additive DMSO) was 512 µg/mL (≈ 788 µM). For the same compound, the MIC (S. mutans c.i.; water additive EtOH) was over 512 µg/mL, the MIC (E. coli ATCC 25922; water additive DMSO) was over 512 µg/mL and the MIC (E. coli ATCC 25922; water additive EtOH) was over 512 µg/mL. The MBC (E. faecalis c.i.; water additive DMSO) was 512 µg/mL (≈ 788 µM), the MIC (E. faecalis c.i.; water additive DMSO) was 256 µg/mL (≈ 394 µM) and the MBC (E. faecalis c.i.; water additive EtOH) was 512 µg/mL (≈ 788 µM). It also gave an MIC (E. faecalis c.i.; water additive EtOH) of 512 µg/mL (≈ 788 µM).
